This experiment concerns the target T1, STK32C (YANK3) (Homo sapiens, UniProt Q86UX6).
T1 construct: purchased Thermo Fisher Scientific (Life Technologies) SelectScreen
The experiment in a line: SelectScreen LanthaScreen. It is filed as binding. The settings on record: read-out: % displacement. Put shortly:
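NU5455 was profiled across the SelectScreen Broad panel of kinase activity and binding assays. Z'LYTE reactions such as CSF1R ran at apparent Km ATP, while the Adapta CAMK1 assay used ATP listed as 10. Values are given as percent.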

Our source for the inhibition values is publication PMC6934184, “Selective DNA-PKcs inhibition extends the therapeutic index of localized radiotherapy and chemotherapy” (The Journal of Clinical Investigation, 2019).

T1 sequence (Q86UX6 whole entry): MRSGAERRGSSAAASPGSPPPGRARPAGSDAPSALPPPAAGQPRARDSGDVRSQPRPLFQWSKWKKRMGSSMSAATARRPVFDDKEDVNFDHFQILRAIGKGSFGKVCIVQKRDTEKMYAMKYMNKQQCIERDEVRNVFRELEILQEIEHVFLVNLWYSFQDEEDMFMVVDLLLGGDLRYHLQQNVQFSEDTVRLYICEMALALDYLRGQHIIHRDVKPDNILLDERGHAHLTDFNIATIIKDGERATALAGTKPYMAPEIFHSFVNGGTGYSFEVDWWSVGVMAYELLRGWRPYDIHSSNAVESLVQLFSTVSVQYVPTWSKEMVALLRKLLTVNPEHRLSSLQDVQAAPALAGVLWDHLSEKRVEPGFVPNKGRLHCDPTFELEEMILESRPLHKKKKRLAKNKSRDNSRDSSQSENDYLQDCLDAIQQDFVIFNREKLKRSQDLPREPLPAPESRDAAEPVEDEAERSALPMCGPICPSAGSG

Regarding `CN(C(=O)CN1CCOCC1)c1ccc2sc3c(-c4cccc5c(=O)cc(N6CC7CCC(C6)O7)oc45)cccc3c2c1` [NU5455], the inhibition at 1 µM came out at 4.2%.
